The results in this text go back to ChEMBL document CHEMBL1142996 (J Med Chem, 2007).

Non-standard residues stand in square brackets, D forms with d. Residues, ends and D or L forms follow the SMILES beside them. Phe(4-NH2) = Nc1ccc(C[C@H](N)C(=O)O)cc1 A value given as a limit tells only on which side of the number the result lay.

For the assay, the target named is T1, Angiotensin II receptor (AT-1) type-1 (Rattus norvegicus, UniProt P29089+P25095).
T1 sequence (P29089 whole entry): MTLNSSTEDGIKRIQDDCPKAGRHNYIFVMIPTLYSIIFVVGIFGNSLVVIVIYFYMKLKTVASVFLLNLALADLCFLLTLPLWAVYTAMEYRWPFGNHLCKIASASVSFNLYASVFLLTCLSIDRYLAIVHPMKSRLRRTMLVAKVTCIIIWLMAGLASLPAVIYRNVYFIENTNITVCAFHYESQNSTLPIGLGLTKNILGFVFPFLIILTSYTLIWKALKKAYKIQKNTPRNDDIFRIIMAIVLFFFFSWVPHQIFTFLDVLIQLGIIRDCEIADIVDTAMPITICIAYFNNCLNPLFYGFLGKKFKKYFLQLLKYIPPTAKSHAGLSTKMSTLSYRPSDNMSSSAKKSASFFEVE
T1 sequence (P25095 whole entry): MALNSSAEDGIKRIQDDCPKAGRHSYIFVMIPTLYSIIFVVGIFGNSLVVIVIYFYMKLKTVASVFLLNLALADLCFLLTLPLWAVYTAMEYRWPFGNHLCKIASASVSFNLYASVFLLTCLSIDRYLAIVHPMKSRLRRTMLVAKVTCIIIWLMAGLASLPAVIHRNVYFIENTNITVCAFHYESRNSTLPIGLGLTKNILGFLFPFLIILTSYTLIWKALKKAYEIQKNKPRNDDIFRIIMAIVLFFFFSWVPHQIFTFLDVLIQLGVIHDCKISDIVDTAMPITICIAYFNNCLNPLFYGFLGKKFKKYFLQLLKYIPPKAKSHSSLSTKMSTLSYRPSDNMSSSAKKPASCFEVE
Description: Displacement of [125I]Ang2 from AT1 receptor in rat liver membrane. Type of assay: cell membranes.

Compound `CC[C@@H](C)[C@H](NC(=O)[C@@H]1CCCN1C(=O)c1cccc(Cn2ccnc2)c1)C(=O)O` showed a Ki greater than 10 µM.

`O=C(N[C@@H](Cc1ccccc1)C(=O)O)c1cccc(Cc2cnc[nH]2)c1` displayed a Ki greater than 10 µM.

Compound `O=C(N[C@@H](Cc1ccccc1)C(=O)O)c1cccc(Cn2ccnc2)c1` had a Ki greater than 10 µM.

`O=C(O)[C@H](Cc1ccccc1)NC(=O)[C@@H]1CCCN1C(=O)c1cccc(Cc2cnc[nH]2)c1`: the Ki was greater than 10 µM.

In turn, `O=C(O)[C@H](Cc1ccccc1)NC(=O)[C@@H]1CCCN1C(=O)c1cccc(Cn2ccnc2)c1` showed a Ki greater than 10 µM.

Compound `CC[C@@H](C)[C@H](NC(=O)[C@@H]1CCCN1C(=O)c1cccc(Cc2cnc[nH]2)c1)C(=O)O` returned a Ki greater than 10 µM.

The compound `CC[C@@H](C)[C@H](NC(=O)c1cccc(Cn2ccnc2)c1)C(=O)O` came in with a Ki greater than 10 µM.

Consider `CC[C@@H](C)[C@H](NC(=O)c1cccc(Cc2cnc[nH]2)c1)C(=O)O`, for which the inhibitory constant (Ki) is greater than 10 µM.

On to `CC[C@H](C)[C@H](NC(=O)[C@@H]1CCCN1C(=O)[C@H](Cc1cnc[nH]1)NC(C)=O)C(=O)O` (Ac-His-Pro-Ile-OH), for which the Ki was greater than 10 µM.

Take `CC(=O)N[C@@H](Cc1cnc[nH]1)C(=O)N1CCC[C@H]1C(=O)N[C@@H](Cc1ccccc1)C(=O)O` (Ac-His-Pro-Phe-OH): the Ki was greater than 10 µM.

Consider `CC[C@H](C)[C@H](NC(=O)[C@H](Cc1ccc(O)cc1)NC(=O)[C@@H](NC(=O)[C@H](CCCNC(=N)N)NC(=O)[C@@H](N)CC(=O)O)C(C)C)C(=O)N[C@@H](Cc1ccc(N)cc1)C(=O)N1CCC[C@H]1C(=O)N[C@@H](Cc1ccccc1)C(=O)O` (H-DRVYI[Phe(4-NH2)]PF-OH), for which the Ki was greater than 10 µM.

In the case of `CC[C@H](C)[C@H](NC(=O)[C@@H]1CCCN1C(=O)[C@@H](N)Cc1cnc[nH]1)C(=O)O` (H-His-Pro-Ile-OH), the Ki is greater than 10 µM.

As for `N[C@@H](Cc1cnc[nH]1)C(=O)N1CCC[C@H]1C(=O)N[C@@H](Cc1ccccc1)C(=O)O` (H-His-Pro-Phe-OH), the Ki was 1.598 µM.
